The source of these data is BindingDB's records for doi:10.1016/s0960-894x(03)00461-x (Eli Lilly, 2003).

Each structure is given as a SMILES string.

Common to all, as to experiment: CDK Kinase Inhibition Assay
Details in all cases: 25 °C

Assay [1] concerns the target Cyclin-dependent kinase 2/G1/S-specific cyclin-E1 (Homo sapiens, UniProt P24941).
The target of assay [2] is cAMP-dependent protein kinase catalytic subunit alpha (Bos taurus, UniProt P00517).
Assay [3] has as its target Calcium/calmodulin-dependent protein kinase type II subunit alpha (Rattus norvegicus, UniProt P11275).

Calcium/calmodulin-dependent protein kinase type II subunit alpha, sequence (P11275 whole entry): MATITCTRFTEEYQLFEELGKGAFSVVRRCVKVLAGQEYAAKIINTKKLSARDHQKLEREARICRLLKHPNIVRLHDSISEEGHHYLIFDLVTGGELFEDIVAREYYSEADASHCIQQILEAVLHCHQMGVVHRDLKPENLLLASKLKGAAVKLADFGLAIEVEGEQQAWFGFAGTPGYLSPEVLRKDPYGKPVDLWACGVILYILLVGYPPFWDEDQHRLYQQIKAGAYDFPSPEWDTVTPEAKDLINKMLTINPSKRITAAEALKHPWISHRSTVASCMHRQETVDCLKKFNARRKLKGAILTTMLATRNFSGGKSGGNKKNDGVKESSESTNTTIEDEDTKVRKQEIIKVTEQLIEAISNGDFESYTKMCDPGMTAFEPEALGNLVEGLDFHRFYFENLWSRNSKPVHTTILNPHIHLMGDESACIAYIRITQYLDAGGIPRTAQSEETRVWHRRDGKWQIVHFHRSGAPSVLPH

What is called IC50 is the concentration that inhibits the measured activity by half. For `COc1ccc2c3c4c(c5c(ccc6ccn(C)c65)c3n(CCCN3CCC(O)CC3)c2c1)C(=O)NC4=O` [3-[3-(4-hydroxypiperidin-1-yl)propyl]-6-methoxy-18-methyl-3,13,18-triazahexacyclo[14.7.0.0^{2,10}.0^{4,9}.0^{11,15}.0^{17,21}]tricosa-1(16),2(10),4(9),5,7,11(15),17(21),19,22-nonaene-12,14-dione], it took 2.1 µM to reach half-maximal inhibition in assay [1] (IC50).
On to `CCc1ccc2c(c1)[nH]c1c3ccc4ccn(C)c4c3c3c(c21)C(=O)NC3=O` [6-ethyl-18-methyl-3,13,18-triazahexacyclo[14.7.0.0^{2,10}.0^{4,9}.0^{11,15}.0^{17,21}]tricosa-1(16),2(10),4(9),5,7,11(15),17(21),19,22-nonaene-12,14-dione], for which the half-inhibitory concentration (IC50) was 0.36 µM in assay [1] and greater than 20 µM in assay [2].
Regarding `COc1ccc2c3c4c(c5c(ccc6ccn(C)c65)c3n(CCN3CCCCC3)c2c1)C(=O)NC4=O` [6-methoxy-18-methyl-3-[2-(piperidin-1-yl)ethyl]-3,13,18-triazahexacyclo[14.7.0.0^{2,10}.0^{4,9}.0^{11,15}.0^{17,21}]tricosa-1(16),2(10),4(9),5,7,11(15),17(21),19,22-nonaene-12,14-dione], the IC50 in assay [3] and in assay [2] was greater than 20 µM in each case.
For the compound `COc1ccc2c3c4c(c5c(ccc6ccn(C)c65)c3n(CCCN3CCOCC3)c2c1)C(=O)NC4=O` [6-methoxy-18-methyl-3-[3-(morpholin-4-yl)propyl]-3,13,18-triazahexacyclo[14.7.0.0^{2,10}.0^{4,9}.0^{11,15}.0^{17,21}]tricosa-1(16),2(10),4(9),5,7,11(15),17(21),19,22-nonaene-12,14-dione], the IC50 in assay [3] and in assay [2] was greater than 20 µM throughout.
Turning to `COc1ccc2c3c4c(c5c(ccc6ccn(C)c65)c3n(CCCN3CCSCC3)c2c1)C(=O)NC4=O` [6-methoxy-18-methyl-3-[3-(thiomorpholin-4-yl)propyl]-3,13,18-triazahexacyclo[14.7.0.0^{2,10}.0^{4,9}.0^{11,15}.0^{17,21}]tricosa-1(16),2(10),4(9),5,7,11(15),17(21),19,22-nonaene-12,14-dione], the IC50 in assay [3] and in assay [2] was greater than 20 µM throughout.
`Cn1ccc2cc(F)c3c4[nH]c5ccccc5c4c4c(c3c21)C(=O)NC4=O` [23-fluoro-18-methyl-3,13,18-triazahexacyclo[14.7.0.0^{2,10}.0^{4,9}.0^{11,15}.0^{17,21}]tricosa-1(16),2(10),4(9),5,7,11(15),17(21),19,22-nonaene-12,14-dione]: the IC50 in assay [2] is greater than 20 µM.
On the same count and under the same terms, the same measure for `COC(=O)C1CCN(CCc2cccc3c2[nH]c2c4ccc5ccn(C)c5c4c4c(c32)C(=O)NC4=O)CC1` [methyl 1-(2-{18-methyl-12,14-dioxo-3,13,18-triazahexacyclo[14.7.0.0^{2,10}.0^{4,9}.0^{11,15}.0^{17,21}]tricosa-1(16),2(10),4(9),5,7,11(15),17(21),19,22-nonaen-5-yl}ethyl)piperidine-4-carboxylate]: greater than 20 µM.
